Like-named read-outs stand apart in the source and are kept apart here.
Experiments:
LS/HNPCC patients = conditions: cited from earlier work; for decrease in the rate of tumor formation / tumor incidence: long-term aspirin exposure (benefit after 5 yrs) vs placebo-treated cohort
[1] = tested on: MMR-deficient human colon tumor cells; experiment: MSI suppression in MMR-defective cells; format: cell-based; conditions: for MSI suppression (in words): long-term exposure of MMR-defective cells
Description: Inhibition of cyclooxygenase-1 (COX1) or COX2 activity that is involved in the production of inflammatory prostaglandins was, in the past, generally considered a mechanism for cancer chemoprevention by NSAIDs.

[2] = tested on: microsatellite instability (MSI) in intestinal tissues of LS/HNPCC mice; experiment: MSI analysis of tissues by small pool PCR (comparative MSI, Bethesda Criteria); format: in vivo, mouse; conditions: for conversion of MSI to MSS (in words): intestinal compartment of treated mice; for comparative MSI-H proportion: intestinal tumor vs matched adjacent normal tissue, untreated 33%
Procedure: A MSI analysis on tissues from the ASA and NO-ASA treatment groups by small pool PCR (1-10 genomic equivalents) was performed to determine the distribution of novel alleles between constitutional DNA (Ear, E) as well as normal (N) and tumor (T) intestinal tissues. When multiple samples of each tissue were analyzed, the resulting profiles comprised a representational distribution of the intrinsic allelic diversity. Ear tissues from these mice were consistently MSS, with the major allele always flanked by a relatively unvarying pattern of alleles that arise from PCR amplification-artifacts. Normal and intestinal tissues from ASA and NO-ASA treated mice show variation in major allele sizes and distributions.
A comparative assessment of MSI status was made between intestinal tumors and their matched adjacent normal tissues by determining the absolute changes in microsatellite alterations between them. Comparative MSI provides a quantitative measure of the relative differences in instability between adjacent developmentally related normal and tumor tissues. The Bethesda Criteria for diagnostic microsatellite instability was used: MSS, no changes in microsatellite marker status; high microsatellite instability (MSI-H; ≧2 of 5 markers different).

[3] = tested on: Msh2^flox/floxVpC^+/+ (LS/HNPCC) mice; experiment: Kaplan-Meier survival of LS/HNPCC mice treated with NSAIDs in diet; format: in vivo, mouse
Procedure: (§1) Cohorts of equivalent gender Msh2^flox/floxVpC^+/+ mice were treated with NSAIDs including ASA that were mixed with powdered diet and administered ad libitum. VpC^+/+ (Msh2^++) mice were similarly examined to control for potentially confounding effects of continuous Cre expression in the intestine. Kaplan-Meier survival analyses were generated for each NSAID treatment (FIG. 2).
A mouse model where exon 12 of Msh2 is flanked by LoxP recombination sites (Msh2^flox/flox) was generated. […] When considering the utility of this mouse model it is important to note that while modern day LS/HNPCC largely occurs in the colon, it was originally described as a gastric cancer.
The endpoint for the chemopreventive analysis of NSAIDs on mouse tumorigenesis is survival. Assessment of tumor kinetics, treatment regimes and pathological changes during tumor development constitute a correlative quantitative database.

[4] = tested on: intestinal tumors of LS/HNPCC mice; experiment: Tumor number and pathology following NSAID treatment; conditions: for numbers of tumors when sacrificed: untreated 1.90±1.02, statistically equivalent
miR-9 = conditions: intestinal tissue
Procedure: (§2) Groups of 12 mice were continuously treated (6 VpC^+/+ wild type and 6 Msh2^flox/floxVpC^+/+ LS/HNPCC mice) with each of the eight NSAIDs and the intestines were harvested after two months exposure. A 0.5 cm section of intestine 2.5 cm proximal of the cecum was harvested from each individually treated mouse. High quality mRNA and miRNA was prepared for expression array analysis. To reduce the possibility of day-to-day variation the hybridization of all samples was performed simultaneously as well as sequential expression analysis. Transcriptome expression data from both the mRNA and miRNA chips was analyzed.
(§3) Identifying functional and regulatory connectivity among the differentially regulated miRs and mRNAs was analyzed to begin to determine biological pathways and networks responsible for NSAID-mediated tumor chemoprevention,. A combination of tools were used to deconvolute network interactions, including the ToppGene, ToppCluster, and ToppMir tools.

SMC1a mRNA = conditions: intestinal tissue
Procedure: as §2, §3

miR-135a = conditions: intestinal tissue
Procedure: as §2, §3

VpC^+/+ (wild type) mice = tested on: VpC^+/+ (wild type) mice
Procedure: as §1

Compound: CC(=O)Oc1ccccc1C(=O)O [ASA, Acetylsalicylic acid]
- Hazard Ratio (HR) (LS/HNPCC patients; 600 mg aspirin daily vs placebo, tumors by yearly colonoscopy, p=0.02): 0.61(0.1 9, 0.86)
- decrease in the rate of tumor formation / tumor incidence (LS/HNPCC patients): ≥ 2 fold
- decrease in the rate of tumor formation / tumor incidence (LS/HNPCC patients; listed as aspirin): at least 2 fold
- MSI suppression (in words) [1]: suppressed MSI
- conversion of MSI to MSS (in words) [2]: at least partially converted MSI to MSS
- comparative MSI-H proportion [2]: 22%
- mean survival ([3]; 400 mg/kg ASA in diet, untreated median 333 days, p<0.001): 393 days
- increase in lifespan ([3]; 400 mg/kg ASA vs untreated): 18%
- effect on survival (in words) ([3]; LS/HNPCC mice vs untreated): suppressed tumorigenesis and increased survival
- numbers of tumors when sacrificed [4]: 1.68±0.72

Compound: COc1ccc2cc([C@H](C)C(=O)O)ccc2c1 [Naproxen, naproxen]
- miR-9 expression (in words) (miR-9): down-regulated
- SMC1a mRNA expression (in words) (SMC1a mRNA): enhanced
- miR-135a expression (in words) (miR-135a): down-regulated
- mean survival ([3]; 166 mg/kg naproxen in diet): 545 days
- mean survival ([3]; 331 mg/kg naproxen in diet): 569 days
- effect on survival (in words) ([3]; LS/HNPCC mice vs untreated): nearly double the life span of untreated animals
- increase in life span (FIG. 2 grouping) ([3]; representative survival data, vs untreated LS/HNPCC mice): ~100%
- numbers of tumors when sacrificed [4]: 1.58±0.67

Compound: CC1=C(CC(=O)O)c2cc(F)ccc2/C1=C\c1ccc(S(C)(=O)=O)cc1 [Sulindac Sulfone, sulindac sulfone]
- effect on survival (in words) ([3]; LS/HNPCC mice vs untreated): No Effect

Compound: CC1=C(CC(=O)O)c2cc(F)ccc2/C1=C\c1ccc([S+](C)[O-])cc1 (centres unmarked) [Sulindac, sulindac]
- MSI suppression (in words) [1]: suppressed MSI
- effect on survival (in words) ([3]; LS/HNPCC mice vs untreated): increased survival similar to ASA
- number of cecal cancers (in words) [4]: increases the number of cecal cancers
- tumor induction in wild type controls (in words) (VpC^+/+ (wild type) mice; mouse, in vivo): induces tumors in the wild type controls
- survival of wild type mice (in words) (VpC^+/+ (wild type) mice; wild type controls, FIG. 2B): significant reduce the survival of the wild type mice

Compound: NO-sulindac sulphone
- effect on survival (in words) ([3]; LS/HNPCC mice vs untreated): No Effect

Compound: nitric oxide-donating acetylsalicylic acid [NO-ASA]
- dose suppressing MSI, fold lower than ASA ([1]; relative to ASA): 300-3000 fold
- conversion of MSI to MSS (in words) [2]: at least partially converted MSI to MSS
- comparative MSI-H proportion [2]: 20%
- mean survival ([3]; 72 mg/kg NO-ASA in diet): 403 days
- effect on survival (in words) ([3]; LS/HNPCC mice vs untreated): suppressed tumorigenesis and increased survival
- numbers of tumors when sacrificed [4]: 1.78±1.25

Compound: nitric oxide-donating sulindac [NO-Sulindac]
- effect on survival (in words) ([3]; mouse, in vivo): increased survival similar to ASA

— US20150292023A1, “Materials and Methods Related to NSAID Chemoprevention in Colorectal Cancer” (priority 2011, published 2015)
